Experimental data from patent publication US8796302B2 (priority 2004, dated 2014).

Tests used:
[1] = tested on: COX2; experiment: Western blot of COX2 in microglia enriched cultures; format: cell-based, rat; conditions: femto-molar DM, 30 min pretreatment, LPS
Procedure: Western blots were used to analyze possible effects of DM on iNOS and COX2 production in rat microglia enriched cultures. The cultures were prepared and treated with vehicle, OM DM, 10^−14DM, LPS alone, and LPS with different concentrations of DM. The production of iNOS (inducible nitric oxide synthenase) and COX2 (cycloxyase 2) in the culture extracts were detected by Western Blot assay. Data in FIG. 9B represent the mean±S.E.

[2] = tested on: dopaminergic neurons in PHOX^+/+ and PHOX^−/− mouse neuron-glia cultures; experiment: [3H]DA uptake in neuron-glia cultures of PHOX+/+ and PHOX−/− mice; format: cell-based; conditions: DM 10^−14 M, LPS 10 ng/ml
Procedure: To further study the role of ROS in DM-elicited neuroprotection, neuron-glia cultures were prepared from NADPH oxidase-deficient (PHOX^−/−) and wild-type (PHOX^+/+) mice.
(§1) Neurotoxicity was assessed by DA uptake as described in Example 1. TNFα production was measured by ELISA and iROS was determined by DCFDA as in Example 5. Results are expressed as a percentage of the control culture in FIG. 7A, pg/ml in FIG. 7B, and difference from control in FIG. 7C, respectively, and are the mean±S.E.M. of five individual experiments with triplicates in each experiment. *, P<0.05 compared with LPS culture.
(§2) The rat and mouse ventral mesencephalic neuron-glia cultures were prepared as in Example 1. […] DA neurotoxicity was measured by using the [^3H] DA uptake assay as in Example 1. The data are expressed as the percent of the control cultures and are the mean±SEM. The release of TNFα was measured with a commercially available enzyme-linked immunosorbent assay kit. *P<0.05, **P<0.01, compared to control. The amount of TNFα was measured as in Example 2.

[3] = tested on: CD-1 mice given LPS/GalN; experiment: Liver histology in LPS/GalN endotoxic shock; format: in vivo, mouse
Procedure: Serum alanine aminotransferase (ALT) activity was assayed as a marker of hepatocellular death using a commercially available kit (Infinite ALT, Sigma, St. Louis, Mo.). A portion of the liver was fixed in 10% neutral formalin, processed by standard histological techniques, stained with hematoxylin and eosin, and examined for morphological evidence of liver injury.
Sections of the mice livers were stained with hematoxylin and eosin, and photomicrographs were taken at 100× magnification.

[4] = tested on: TNFα; experiment: TNFα production in neuron-glia cultures of PHOX+/+ and PHOX−/− mice; format: cell-based, mouse; conditions: DM 10^−14 M
Procedure: as §1, §2

[5] = tested on: dopaminergic neurons in neuron-glia co-cultures; experiment: [3H]DA uptake in Aβ-treated neuron-glia cultures; format: cell-based, rat; conditions: micro- and femtomolar DM, 30 min pretreatment, Aβ 0.75 μM
Procedure: Neuron-glia co-cultures were prepared and treated with vehicle alone, Aβ 0.75 μM alone, or DM 30 min prior to treatment with Aβ0.75 μM similar to Example 1. Amyloid-β peptide (25-35 and 1-42) was obtained from American Peptide Co., Inc (Sunnyvale, Calif.). Neurotoxicity was assessed by DA uptake as in Example 1. Results are expressed as a percentage of the control cultures and are the mean±S.E.M. of three to eight individual experiments with triplicates in each experiment. ##, P<0.01 compared with the control culture; *, P<0.05 compared with Aβ-treated culture.

[6] = tested on: CD-1 mouse Kupffer cells; experiment: Superoxide and intracellular ROS in LPS-stimulated Kupffer cells; format: cell-based; conditions: LPS 10 ng/ml
Procedure: Kupffer cell samples were collected by anesthetizing the CD-1 mice with pentobarbital anesthesia [60 mg/kg intraperitoneally (i.p.)]. The abdomen of the animals was shaved and opened, the portal vein was cannulated and perfused with Ca^2+- and Mg^2+-free Hanks' balanced salt solution (HBSS) at 37° C. for 5 min at a flow rate of 13 ml/min. Subsequently, the liver was perfused with HBSS containing 0.05% collagenase IV (Sigma Chemical, St. Louis, Mo.) at 37° C. for 5 min. After the liver was digested, it was excised and cut into small pieces in collagenase buffer. The suspension was filtered through nylon gauze mesh, and the filtrate was centrifuged at 450×g for 10 min at 4° C. Cell pellets were resuspended in buffer, parenchymal cells were removed by centrifugation at 50×g for 3 min, and the nonparenchymal cell fraction was washed twice with buffer. Cells were centrifuged on a density cushion of 50% of Percoll (Pharmacia, Upsala, Sweden) at 1,000×g for 15 min, and the Kupffer cell fraction was collected and washed again with buffer. The viability of the cells was determined by tryptan blue exclusion at >90%. The cells were seeded onto 24-well culture plates and cultured in RPMI 1640 (GIBCO Laboratories Life Technologies, Grand Island, N.Y.) supplemented with 10% fetal bovine serum and antibiotics (100 U/ml penicillin G and 100 μg/ml streptomycin sulfate) at 37° C. with 5% CO2. Non-adherent cells were removed after 2 hours by replacing media, and cells were cultured for 24 hours before the experiments.
The production of superoxide and intracellular ROS by the Kupffer cells were measured as in Example 5.

[7] = tested on: GDNF; experiment: GDNF mRNA (real-time PCR) in primary astroglia; format: cell-based, rat; conditions: VPA 0.6 mM
Procedure: Rat primary astroglias were exposed to 0.6 in M VPA for various times ranging from 6 to 48 hours. Total RNA was extracted from cells by Tri reagent (Sigma) and purified with RNeasy columns (Qiagen, Valencia, Calif.). Expression of the selected genes was quantified using real-time RT-PCR analysis. Briefly, total RNA was reverse transcribed with MuLV reverse transcriptase and oligo-dT primers. The forward and reverse primers for selected genes were designed using Primer Express software. The SYBR green DNA PCR kit (Applied Biosystems, Foster City, Calif.) was used for real-time PCR analysis. The relative differences in expression between groups were expressed using cycle time (Ct) values and the relative differences between groups were expressed as relative increases setting the control as 100%. Assuming that the Ct value is reflective of the initial starting copy and that there is 100% efficacy, a difference of one cycle is equivalent to a two-fold difference in the starting copy.

SMILES | protein content of COX2 [1] | LPS-induced reduction of [3H]-dopamine uptake ([2]; PHOX+/+ mice) | LPS-induced reduction of [3H]-dopamine uptake ([2]; PHOX−/− mice) | liver histology (hematoxylin and eosin) ([3]; 100 pg/kg DM plus LPS/GalN) | liver histology (hematoxylin and eosin) ([3]; 1 μg/kg DM plus LPS/GalN) | liver histology (hematoxylin and eosin) ([3]; 10 mg/kg DM plus LPS/GalN) | liver pathological alterations (necrosis, apoptosis, swelling) ([3]; DM treatments, 12 hours after LPS/GalN) | LPS-induced TNFα production ([4]; PHOX+/+ mice) | LPS-induced TNFα production ([4]; PHOX−/− mice) | Aβ-induced neurotoxicity (DA uptake) [5] | extracellular superoxide production ([6]; DM 5 μM) | intracellular superoxide production (iROS) ([6]; DM 5 μM) | extracellular superoxide production ([6]; DM 10 μM) | intracellular superoxide production (iROS) ([6]; DM 10 μM) | GDNF mRNA levels ([7]; 12 hours, control as 100%) | GDNF mRNA levels ([7]; 24 hours, control as 100%) [%] | GDNF mRNA levels ([7]; 48 hours)
COc1ccc2c(c1)[C@@]13CCCC[C@H]1[C@@H](C2)N(C)CC3 [DM, d-3-methoxy-N-methylmorphinan] | failing to affect the protein content | significantly attenuated this decrease | failed to show any protective effect | cell death is mild | hepatic congestion and cell death are obvious | hepatic congestion and cell death are mild | dramatically ameliorated | significantly reduce TNFα production | not seen | neuroprotective effect | attenuated | attenuated | significantly blunted | significantly blunted | – | – | –
CCCC(CCC)C(=O)O [VPA, Valproic acid] | – | – | – | – | – | – | – | – | – | – | – | – | – | – | about 180% | ~265 | back to the control value
